Experimental data as given in patent US11149046B2, “Antibacterial sideromycins” (Hsiri Therapeutics, Inc., priority 2014, dated 2021).
Values after ≈ are worked out from the molar mass of the structure shown. “Also recorded” adds a separate entry of the source. Like-named read-outs stand apart in the source and are kept apart here.

Tests used:
P. aeruginosa KW799/wt = experiment: MIC determination; type: cell-based, Pseudomonas aeruginosa; conditions: read-out: MIC
Text: (§1) Table 3 that was included in the first Example 4 section provides antibacterial data for the first synthetic sideromycins we prepared and studied. The second Example 4 section elaborated and expanded on that data with inclusion of representative antibacterial data in the text and associated pictures of Petri dish assays. MIC (minimum inhibition concentration) is given in μM and AD (agar diffusion zones of inhibition are given in mm from Kirby-Bauer Petri dish growth inhibition studies).

Pa4 = experiment: MIC determination; type: cell-based, Pseudomonas aeruginosa; conditions: Pseudomonas aeruginosa; Table 6
Text: as §1

Pa6 = experiment: MIC determination; type: cell-based, Pseudomonas aeruginosa; conditions: Pseudomonas aeruginosa; Table 6; read-out: MIC
Text: (§2) MIC (minimum inhibition concentration) is given in μM and AD (agar diffusion zones of inhibition are given in mm from Kirby-Bauer Petri dish growth inhibition studies).

[1] = tested on: Pa-Da-1304 CF patient isolate; experiment: MIC determination; type: cell-based, Pseudomonas aeruginosa; conditions: Pseudomonas aeruginosa; Table 6
Text: as §2
We obtained a clinical isolate of Pseudomonas from a cystic fibrosis patient.

A. baumannii ATCC 17961 = experiment: MIC determination; type: cell-based, Acinetobacter baumannii; conditions: read-out: MIC
Text: as §1

[2] = tested on: Pseudomonas aeruginosa 01 (Pa01); experiment: MIC determination; type: cell-based; conditions: read-out: MIC
Text: as §1

E. coli DC0 = experiment: Agar diffusion (Kirby-Bauer) assay; type: cell-based; conditions: Table 5
Text: as §1

E. coli DC2 = experiment: Agar diffusion (Kirby-Bauer) assay; type: cell-based; conditions: Table 5
Text: as §1

[3] = tested on: Pseudomonas aeruginosa KW799/wt; experiment: Agar diffusion (Kirby-Bauer) assay; type: cell-based
Text: as §1

[4] = tested on: Pseudomonas aeruginosa KW799/61; type: cell-based; conditions: for AD = agar diffusion inhibition zones: Table 5
Text: as §2

[5] = tested on: Acinetobacter baumannii ATCC 17961; experiment: Agar diffusion (Kirby-Bauer) assay, with and without hydrogel; type: cell-based; conditions: for AD = agar diffusion inhibition zones: Table 5, head prints A. baumannii only
Text: as §1
We investigated whether the sideromycin absorbed in the gel be able to diffuse out of the gel and into the agar to effect antibacterial growth. As a control, the sideromycin alone, without gel, was added in a separate 9 mm well, as usual.
The second question was whether the sideromycin continue to be released and be able to effect bacterial growth inhibition over extended periods. Thus, additional identical agar plates were prepared and stored at 4° C. for 24, 48 and 72 hours to allow diffusion of the sideromycin (control and gel forms) into the agar before allowing the bacteria to grow in an incubator. Then after each time period, the Petri dishes were incubated at 37° C. for 20 hours to promote bacteria growth in the agar. […] The study has been extended to as long as 168 hours (one week) with retention of antibiotic effectiveness.

[6] = tested on: strains of Pseudomonas and Acinetobacter; experiment: Antibacterial activity, general statements; type: cell-based; conditions: general statements of the text
Procedure: Antibiotic activity was determined using agar diffusion assays against representative Gram-negative bacteria, including Pseudomonas aeruginosa (Pa6), and several multidrug resistant forms of Acinetobacter baumannii. Representative results are shown in Table 1 and a corresponding picture of an actual petri dish showing the agar diffusion results (FIG. 4). […].

CC(=O)Oc1cccc(C(=O)NCCCCN(CCCNC(=O)c2cccc(OC(C)=O)c2OC(C)=O)C(=O)CCC(=O)N[C@@H](CCCN(O)C(C)=O)C(=O)N[C@@H](C(=O)N[C@@H]2C(=O)N3C(C(=O)O)=C(Cl)CCC23)c2ccccc2)c1OC(C)=O (stereo partly drawn) [MG-1-185]
MIC (P. aeruginosa KW799/wt; Pseudomonas aeruginosa, KW799/WT, Table 6): 1.56 µM (≈ 1.86 µg/mL) | MIC (Pa4): > 50 µM | MIC (Pa6): > 50 µM | MIC [1]: > 50 µM | MIC (A. baumannii ATCC 17961; Acinetobacter baumannii, ATCC17961, Table 6, head prints A. baumannii only): 0.2 µM (≈ 0.238 µg/mL) | MIC ([2]; Pseudomonas aeruginosa, Table 6): > 50 µM

CC(=O)Oc1cccc(C(=O)NCCCCN(CCCNC(=O)c2cccc(OC(C)=O)c2OC(C)=O)C(=O)CCC(=O)N[C@@H](CCCN(O)C(C)=O)C(=O)N[C@@H](C(=O)N[C@@H]2C(=O)N3C2SC(C)(C)[C@@H]3C(=O)O)c2ccccc2)c1OC(C)=O (stereo partly drawn) [MG-1-186]
MIC (Pa6): > 50 µM

O=C(CCC(=O)N(CCCCNC(=O)c1cccc(O)c1O)CCCNC(=O)c1cccc(O)c1O)NCCCCCN(O)C(=O)CCCC(=O)NC(C(=O)NC1C(=O)N2C(C(=O)O)=C(Cl)CSC12)c1ccccc1 (stereo not drawn) [MG-1-285]
MIC (A. baumannii ATCC 17961): 0.025 µM (≈ 0.027 µg/mL)

CC(=O)Oc1cccc(C(=O)NCCCCN(CC(=O)N[C@H](C(=O)N[C@@H]2C(=O)N3C(C(=O)O)=C(Cl)CC[C@H]23)c2ccccc2)C(=O)c2cccc(OC(C)=O)c2OC(C)=O)c1OC(C)=O [YML-1-45cr]
AD = agar diffusion inhibition zones (E. coli DC0): (AD = 31) mm | AD = agar diffusion inhibition zones (E. coli DC2): (AD = 38) mm | AD = agar diffusion inhibition zones ([3]; Table 5): (AD = 18) mm | zones of inhibition (in words) ([3]; wild type Pseudomonas, FIG. 8, 9, 12): sizable zone of inhibition; also recorded: impressive zones of inhibition; also recorded: significant activity | AD = agar diffusion inhibition zones [4]: (AD = 23) mm | zones of inhibition (in words) ([4]; outer membrane permeable mutant, FIG. 9 center panel): significant activity | zones of inhibition (in words) ([5]; Acinetobacter, FIG. 8, 9, 10): zones comparable to or even larger than our first sideromycin, 21; also recorded: impressive zones of inhibition | AD = agar diffusion inhibition zones [5]: (AD = 18) mm

O=C(CN(CCCCNC(=O)c1cccc(O)c1O)C(=O)c1cccc(O)c1O)NC(C(=O)NC1C(=O)N2C(C(=O)O)=C(Cl)CSC12)c1ccccc1 (stereo not drawn) [YML-1-109]
MIC (P. aeruginosa KW799/wt; Table 7): 0.05 µM (≈ 0.0384 µg/mL) | MIC (A. baumannii ATCC 17961; Table 7): 0.05 µM (≈ 0.0384 µg/mL) | MIC ([2]; Table 7): 1.56 µM (≈ 1.2 µg/mL) | antibacterial activity (in words) [6]: comparable to the loracarbef conjugate YML-1-91

CC(C)(C)OC(=O)NCCCCCN(O)C(=O)CCC(=O)N[C@@H](C(=O)N[C@@H]1C(=O)N2C1SC(C)(C)[C@@H]2C(=O)O)c1ccccc1 (stereo partly drawn) [YML-I-27]
AD = agar diffusion inhibition zones (E. coli DC0): (AD = 0) mm | AD = agar diffusion inhibition zones (E. coli DC2): (AD = 26) mm | AD = agar diffusion inhibition zones [4]: (AD = 24) (AD = 24) mm | AD = agar diffusion inhibition zones [5]: (AD = 17) mm
